{"source": "paper PMC9532703", "about": "“A novel small molecule RK-019 inhibits FGFR2-amplification gastric cancer cell proliferation and induces apoptosis in vitro and in vivo” (Frontiers in Pharmacology, 2022)", "key": {"[1]": {"test_system": "FGFR2 phosphorylation and downstream proteins in KATO III cells", "test": "Western blot of FGFR signal proteins", "assay_type": "cell-based", "conditions": "24 h", "procedure": "(§1) The cells treated with RK-019 at indicated concentration for 24 h were harvested and lysed in 1× RIPA buffer (20e188, MilliporeSigma, Burlington, MA, United States), which contained protease inhibitor cocktail (B14001, Bimake, Houston, TX, United States) and phosphatase inhibitor cocktail (B15001, Bimake), for 30 min and equalized by concentration of the total protein before loading. Using sodium dodecyl sulphate - polyacrylamide gel electrophoresis (SDS-PAGE) to separate the protein sample and transfer to PVDF membranes (ISEQ00010, MilliporeSigma). The membranes were incubated with relevant primary antibody and corresponding HRP-labeled secondary antibody. Then, chemiluminescence was used to detect target bands. ImageJ software were used to make the gradation analysis.\n(§2) In western blot, results analysis of relative phosphorylation quantification level, data were firstly calculated according to the following formular: Protein Relative phosphorylation data = Gp/Gup. Gp means the gradation level of target phosphorylation protein band and Gup means the gradation level of target total protein band. Then, the relative phosphorylation level can be calculated by the following formular: Protein Relative expression level = Pt/Pc ×100%. Pt means the relative phosphorylation data or target group and Pc means the relative phosphorylation data of control group."}, "[2]": {"test_system": "FGFR2 phosphorylation and downstream proteins in SNU-16 cells", "test": "Western blot of FGFR signal proteins", "assay_type": "cell-based", "procedure": "as §1, §2"}, "[3]": {"test": "Preliminary toxicity in the xenograft mice model", "assay_type": "in vivo, NOD/SCID mice", "procedure": "NOD/SCID mice (6-week-old, weight 18–20 g, Beijing HJF bioscience) were used in this experiment and maintained in a specific-pathogen-free (SPF) condition facility. SNU-16 Cells were resuspended in PBS mixed with Matrigel (1:1) and adjust the density to 1×10^7 per mice (100 μL). The cell suspensions were inoculated subcutaneously on the right flank of the mice. When the mean tumor volume reached approximately 200 mm^3, the mice were divided into four groups (five mice each group): i. Vehicle group, ii. RK-019 15 mg/kg group, iii. RK-019 30 mg/kg group, and iv. RK-019 45 mg/kg group. RK-019 was dissolved in same formula as the in vivo PK study. RK-019 was administrated once per day by oral gavage for 21 days. Tumor volumes were measured three times per week. The tumor volume was measured by a caliper and calculated according to the following formula: Tumor volume=Major axis×Miner axis^2/2.\nAt the end of administration, the mice were executed euthanasia, then tumors, blood, and organs were extracted. The complete blood count (CBC), serum phosphorus analysis, and blood biochemical analysis were completed by West China Frontier Pharma Tech (Chengdu, China). The pathological section and IHC stanning was completed by Servicebio (Wuhan, China). The tumor growth inhibition (TGI) values were calculated with the following formula: TGI=(1−Tn−T0/Cn−C0)×100%."}, "KATO III cells": {"test_system": "KATO III cells", "test": "Cell viability assay (MTT)", "assay_type": "cell-based", "conditions": "Homo sapiens, mean ± SD", "procedure": "(§3) For suspension and mixed suspension adherent cells, the cells were seeded in 96-well plate with different cell density, 0.5×10^4 per well for 96 h treatment, 1×10^4 per well for 72 h treatment, 2×10^4 per well for 48 h treatment, and 5×10^4 per well for 24 h treatment. Different doses of RK-019 were treated as soon as the cell seeded in 96-well plates. For adherent cells, the cells were seeded in a 96-well plate with 3×10^3 per well and cultured overnight followed by administrated different doses of RK-019. After indicated time treatment, MTT solution at a final concentration of 0.5 mg/ml was added and incubated 2–4 h at 37°C. Formazan formed by the living cells was dissolved with DMSO and the absorbance was measured using a microplate spectrophotometer (MultiskanFC, ThermoFisher, Waltham, MA, United States) at 570 nm. IC50 value of RK-019 was calculated by the Graphpad Prism software.\n(§4) All data were analyzed by the GraphPad Prism 8.4.3 (GraphPad Software, California, United States), and was shown as mean value ±SD or SEM, details will be illustrated in the figure legends. Dose-effect curve analysis (IC50 calculation) was performed by the Graphpad Prism software. […] The statistically significant p values were calculated by student’s t-test or two-way ANOVA and were shown in graphics which were labeled as follows: *p < 0.05; **p < 0.01; ***p < 0.001."}, "SNU-16 cells": {"test_system": "SNU-16 cells", "test": "Cell viability assay (MTT)", "assay_type": "cell-based", "conditions": "Homo sapiens; SNU-16, mean ± SD", "procedure": "as §3, §4"}, "Rsk1(r)": {"molecular_target": "T1, Rsk1(r) (Rattus norvegicus, UniProt Q63531)", "T1 construct": "purchased Eurofins Discovery Services (KinaseProfiler)", "T1 sequence (Q63531 whole entry)": "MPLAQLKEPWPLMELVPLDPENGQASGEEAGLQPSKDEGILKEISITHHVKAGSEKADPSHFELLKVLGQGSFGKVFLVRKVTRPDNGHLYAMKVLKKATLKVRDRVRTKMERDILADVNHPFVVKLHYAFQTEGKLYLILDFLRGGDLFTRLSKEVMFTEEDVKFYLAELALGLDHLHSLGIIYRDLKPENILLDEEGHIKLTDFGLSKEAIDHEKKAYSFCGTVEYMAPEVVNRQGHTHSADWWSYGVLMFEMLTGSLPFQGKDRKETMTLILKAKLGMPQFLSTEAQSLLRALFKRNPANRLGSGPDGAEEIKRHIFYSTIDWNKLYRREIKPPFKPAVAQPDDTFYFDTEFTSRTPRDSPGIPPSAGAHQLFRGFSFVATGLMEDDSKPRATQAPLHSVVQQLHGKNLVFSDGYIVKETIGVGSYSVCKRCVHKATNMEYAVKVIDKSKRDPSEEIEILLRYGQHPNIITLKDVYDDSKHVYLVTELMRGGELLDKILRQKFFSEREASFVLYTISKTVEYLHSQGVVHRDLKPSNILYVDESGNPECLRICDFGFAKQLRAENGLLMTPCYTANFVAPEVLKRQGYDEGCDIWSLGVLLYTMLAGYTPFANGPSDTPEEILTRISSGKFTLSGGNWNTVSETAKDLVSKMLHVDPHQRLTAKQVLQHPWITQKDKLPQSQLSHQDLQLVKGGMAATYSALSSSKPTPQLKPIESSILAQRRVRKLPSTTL", "test": "Kinase selectivity panel", "assay_type": "biochemical", "conditions": "read-out: Inhibition(%) @ 1 µM RK-019"}, "FGFR1": {"molecular_target": "T2, FGFR1 (Homo sapiens, UniProt P11362)", "T2 construct": "purchased Eurofins Discovery Services (Dundee, United Kingdom)", "T2 sequence (P11362 22-822)": "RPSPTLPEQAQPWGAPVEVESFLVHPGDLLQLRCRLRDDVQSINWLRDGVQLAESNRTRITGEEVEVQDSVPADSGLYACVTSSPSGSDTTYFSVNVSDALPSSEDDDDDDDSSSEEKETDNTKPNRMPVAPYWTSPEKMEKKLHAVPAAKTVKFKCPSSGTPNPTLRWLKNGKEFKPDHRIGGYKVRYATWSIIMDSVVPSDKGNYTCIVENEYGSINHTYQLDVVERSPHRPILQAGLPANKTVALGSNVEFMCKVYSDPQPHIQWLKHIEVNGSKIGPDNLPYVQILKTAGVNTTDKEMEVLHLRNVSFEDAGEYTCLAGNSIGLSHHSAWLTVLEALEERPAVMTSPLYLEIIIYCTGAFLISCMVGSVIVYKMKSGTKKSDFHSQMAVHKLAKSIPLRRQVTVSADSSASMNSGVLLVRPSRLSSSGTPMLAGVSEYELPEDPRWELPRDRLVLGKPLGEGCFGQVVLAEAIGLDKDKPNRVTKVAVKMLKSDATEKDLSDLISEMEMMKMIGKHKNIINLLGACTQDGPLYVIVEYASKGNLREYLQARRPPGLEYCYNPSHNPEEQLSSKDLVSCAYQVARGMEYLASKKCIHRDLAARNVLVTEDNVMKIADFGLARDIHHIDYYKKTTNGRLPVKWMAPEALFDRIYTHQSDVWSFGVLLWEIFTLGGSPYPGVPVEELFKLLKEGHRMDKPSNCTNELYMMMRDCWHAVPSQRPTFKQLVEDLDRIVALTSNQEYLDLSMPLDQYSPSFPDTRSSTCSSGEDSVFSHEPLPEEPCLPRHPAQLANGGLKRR", "test": "Kinase inhibition IC50 assay (Eurofins)", "assay_type": "biochemical", "procedure": "(§5) Median-inhibitory concentration (IC50) and inhibition ratio of kinases by RK-019 was assessed by Eurofins Discovery Services (Dundee, United Kingdom) using the ATP-site competition binding assay in vitro. Firstly, gradient concentration of RK-019 against FGFRs, including FGFR1, FGFR2, FGFR3, and FGFR4, were tested. IC50 value was calculate by the GraphPad Prism software (v8.4.3, GraphPad Software, California, United States). Then, to measure the selectivity prolife of RK-019, a panel of 422 recombinant human kinases was screened at a concentration of 1 µM RK-019. Kinase MAP was drawn by webtools from Cell Signaling Technology, Inc. (www.cellsignal.com).\n(§6) All data were analyzed by the GraphPad Prism 8.4.3 (GraphPad Software, California, United States), and was shown as mean value ±SD or SEM, details will be illustrated in the figure legends. Dose-effect curve analysis (IC50 calculation) was performed by the Graphpad Prism software. First, concentration value was converted to log value, followed by non-linear regression analyze which is log(inhibitor) vs. normalized response—Variable slope, was performed to calculate the IC50 values. The statistically significant p values were calculated by student’s t-test or two-way ANOVA and were shown in graphics which were labeled as follows: *p < 0.05; **p < 0.01; ***p < 0.001."}, "FGFR2": {"molecular_target": "T3, FGFR2 (Homo sapiens, UniProt P21802)", "T3 construct": "purchased Eurofins Discovery Services (Dundee, United Kingdom)", "T3 sequence (P21802 22-821)": "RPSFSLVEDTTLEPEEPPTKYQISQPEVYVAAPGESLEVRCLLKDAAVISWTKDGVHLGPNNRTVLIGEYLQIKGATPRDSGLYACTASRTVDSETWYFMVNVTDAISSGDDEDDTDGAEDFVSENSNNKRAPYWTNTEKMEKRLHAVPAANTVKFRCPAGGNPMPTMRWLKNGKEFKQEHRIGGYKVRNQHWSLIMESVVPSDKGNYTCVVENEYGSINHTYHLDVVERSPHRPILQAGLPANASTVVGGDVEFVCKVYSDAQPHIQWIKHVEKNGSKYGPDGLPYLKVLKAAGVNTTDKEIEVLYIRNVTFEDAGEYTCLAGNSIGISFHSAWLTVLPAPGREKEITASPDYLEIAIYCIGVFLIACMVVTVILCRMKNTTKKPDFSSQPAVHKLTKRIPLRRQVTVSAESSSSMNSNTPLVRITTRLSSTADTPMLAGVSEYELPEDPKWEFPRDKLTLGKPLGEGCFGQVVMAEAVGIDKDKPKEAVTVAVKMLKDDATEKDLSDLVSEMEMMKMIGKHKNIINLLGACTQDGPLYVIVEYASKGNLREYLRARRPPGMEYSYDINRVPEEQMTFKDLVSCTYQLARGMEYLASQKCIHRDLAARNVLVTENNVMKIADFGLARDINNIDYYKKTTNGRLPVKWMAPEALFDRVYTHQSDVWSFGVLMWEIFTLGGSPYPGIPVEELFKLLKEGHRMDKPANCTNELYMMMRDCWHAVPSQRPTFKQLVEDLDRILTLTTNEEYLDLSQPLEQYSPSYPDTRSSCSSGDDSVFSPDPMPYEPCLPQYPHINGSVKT", "test": "Kinase inhibition IC50 assay (Eurofins)", "assay_type": "biochemical", "procedure": "as §5, §6"}, "FGFR3": {"molecular_target": "T4, FGFR3 (Homo sapiens, UniProt P22607)", "T4 construct": "purchased Eurofins Discovery Services (Dundee, United Kingdom)", "T4 sequence (P22607 23-806)": "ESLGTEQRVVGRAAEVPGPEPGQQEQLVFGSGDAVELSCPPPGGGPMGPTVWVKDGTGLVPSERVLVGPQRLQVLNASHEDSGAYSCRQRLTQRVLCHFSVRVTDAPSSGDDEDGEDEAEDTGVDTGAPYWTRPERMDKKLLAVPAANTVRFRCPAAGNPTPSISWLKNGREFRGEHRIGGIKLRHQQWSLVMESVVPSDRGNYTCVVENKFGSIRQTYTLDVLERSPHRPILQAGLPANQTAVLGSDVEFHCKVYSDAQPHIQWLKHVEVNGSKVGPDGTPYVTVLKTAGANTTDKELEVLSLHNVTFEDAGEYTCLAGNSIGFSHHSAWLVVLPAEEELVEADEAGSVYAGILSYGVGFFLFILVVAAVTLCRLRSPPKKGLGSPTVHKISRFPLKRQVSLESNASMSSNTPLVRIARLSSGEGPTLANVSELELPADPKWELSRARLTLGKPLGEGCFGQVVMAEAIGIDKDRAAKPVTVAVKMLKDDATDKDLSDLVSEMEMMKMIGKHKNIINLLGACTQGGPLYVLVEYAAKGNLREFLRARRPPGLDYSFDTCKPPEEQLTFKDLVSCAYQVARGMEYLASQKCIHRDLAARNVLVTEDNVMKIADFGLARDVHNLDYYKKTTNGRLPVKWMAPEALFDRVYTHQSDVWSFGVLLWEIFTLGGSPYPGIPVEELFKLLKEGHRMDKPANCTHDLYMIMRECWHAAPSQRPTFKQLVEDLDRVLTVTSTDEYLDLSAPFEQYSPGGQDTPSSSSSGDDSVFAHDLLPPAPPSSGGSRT", "test": "Kinase inhibition IC50 assay (Eurofins)", "assay_type": "biochemical", "procedure": "as §5, §6"}, "FGFR4": {"molecular_target": "T5, FGFR4 (Homo sapiens, UniProt P22455)", "T5 construct": "purchased Eurofins Discovery Services (Dundee, United Kingdom)", "T5 sequence (P22455 22-802)": "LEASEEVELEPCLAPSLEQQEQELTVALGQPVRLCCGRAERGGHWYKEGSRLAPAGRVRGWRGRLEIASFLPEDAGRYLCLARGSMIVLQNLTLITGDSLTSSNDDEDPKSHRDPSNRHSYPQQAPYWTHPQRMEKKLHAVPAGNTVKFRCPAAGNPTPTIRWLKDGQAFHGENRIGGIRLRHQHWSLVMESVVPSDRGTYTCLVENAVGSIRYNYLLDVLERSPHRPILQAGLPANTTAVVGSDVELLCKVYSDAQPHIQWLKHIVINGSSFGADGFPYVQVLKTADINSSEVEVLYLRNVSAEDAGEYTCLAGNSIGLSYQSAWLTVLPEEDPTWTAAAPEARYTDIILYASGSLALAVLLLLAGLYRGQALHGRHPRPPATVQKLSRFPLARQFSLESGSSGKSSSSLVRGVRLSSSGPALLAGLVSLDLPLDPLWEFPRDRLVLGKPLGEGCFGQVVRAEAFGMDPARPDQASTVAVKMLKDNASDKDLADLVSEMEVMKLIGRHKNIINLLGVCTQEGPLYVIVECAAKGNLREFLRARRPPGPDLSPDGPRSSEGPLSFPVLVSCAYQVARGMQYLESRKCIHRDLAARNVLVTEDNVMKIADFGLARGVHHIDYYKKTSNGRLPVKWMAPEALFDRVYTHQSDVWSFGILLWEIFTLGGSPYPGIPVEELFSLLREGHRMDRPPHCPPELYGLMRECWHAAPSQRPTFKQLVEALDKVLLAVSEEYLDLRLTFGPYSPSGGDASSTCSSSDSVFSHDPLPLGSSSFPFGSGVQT", "test": "Kinase inhibition IC50 assay (Eurofins)", "assay_type": "biochemical", "procedure": "as §5, §6"}}, "note": "Values joined by “and” are separate entries in the source; they are usually repeats but may differ in a detail not shown here. Identical values can stand only once.", "data": [{"smiles": "COc1cc(OC)cc(N(CCN[C@H](C)CO)c2ccc3ncc(-c4cnn(C)c4)c(=O)n3c2)c1", "note": "[RK-019, (R)-7-((3,5-dimethoxyphenyl) (2-((1-hydroxypropan-2-yl)amino)ethyl)amino)-3-(1-methyl-1H-pyrazol-4-yl)-4H-pyrido [1,2-a]pyrimidin-4-one]", "values": [{"measurement": "protein expression level of phosphorylated FGFR2 T653/T654", "setting": "[1]; KATO III, 0.1, 1, 5, 10, and 100 nM", "result": "decreased"}, {"measurement": "AKT and Erk phosphorylation levels", "setting": "[1]; KATO III", "result": "decreased"}, {"measurement": "FRS2 and PLCγ phosphorylation levels", "setting": "[1]; KATO III", "result": "significantly decreased"}, {"measurement": "protein expression level of phosphorylated FGFR2 T653/T654", "setting": "[2]; SNU-16, 0.1, 1, 5, 10, and 100 nM, 24 h", "result": "decreased"}, {"measurement": "AKT and Erk phosphorylation levels", "setting": "[2]; SNU-16, 24 h", "result": "decreased"}, {"measurement": "FRS2 and PLCγ phosphorylation levels", "setting": "[2]; SNU-16, 24 h", "result": "significantly decreased"}, {"measurement": "body weight change", "setting": "[3]; during 21 days treatment, 15-45 mg/kg oral", "result": "no significant body weight change"}, {"measurement": "hematopoietic toxicity", "setting": "[3]; end of 21 days treatment", "result": "absent"}, {"measurement": "pathological changes in harvested organs (H&E)", "setting": "[3]; end of 21 days treatment", "result": "no pathological changes"}, {"measurement": "IC50", "setting": "KATO III cells", "result": "5.45 ± 5.3", "unit": "nM"}, {"measurement": "IC50", "setting": "SNU-16 cells", "result": "3.96 ± 4.4", "unit": "nM"}, {"measurement": "activity at 1 µM", "setting": "Rsk1(r)", "result": 96, "unit": "%"}, {"measurement": "IC50", "setting": "FGFR1", "result": "8.9 nM and 9.1 nM"}, {"measurement": "IC50", "setting": "FGFR2", "result": 4.6, "unit": "nM"}, {"measurement": "IC50", "setting": "FGFR3", "result": 26.3, "unit": "nM"}, {"measurement": "IC50", "setting": "FGFR4", "result": 40.7, "unit": "nM"}]}]}
